Assay results from ChEMBL document CHEMBL1201862, “PubChem BioAssay data set” (2004).
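Values below derive from 48-hour exposures of cells grown in 96-well plates, with endpoints linearly interpolated between the two concentrations bracketing the appropriate inhibition level. At the GI50, growth is halved.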 Activity calls are given as the source filed them. Rule as the data show it: active = GI50 up to about 1.1 µM and inactive = higher.

Key:
Assay in all cases: inhibition of tumour cell growth, NCI panel, 48 h
COLO 205 = tested on: COLO 205
Malme-3M = tested on: Malme-3M
PC-3 = tested on: PC-3
SNB-75 = tested on: SNB-75
MDA-N = tested on: MDA-N
LOX IMVI = tested on: LOX IMVI
OVCAR-5 = tested on: OVCAR-5
SK-OV-3 = tested on: SK-OV-3
K562 = tested on: K562
U-251 = tested on: U-251
A498 = tested on: A498
NCI-H226 = tested on: NCI-H226
OVCAR-8 = tested on: OVCAR-8
SW-620 = tested on: SW-620
T47D = tested on: T47D
SR = tested on: SR
UACC-62 = tested on: UACC-62
CCRF-CEM = tested on: CCRF-CEM
SK-MEL-5 = tested on: SK-MEL-5
HOP-92 = tested on: HOP-92

Measured: GI50

COc1ccc(S(=O)(=O)Nc2ccc(-c3csc(N4C(=O)/C(=C/C=C\c5ccccc5)N=C4c4ccccc4)n3)cc2)cc1Cl
inactive: COLO 205 39.4 µM | Malme-3M 20.2 µM | PC-3 31.3 µM | SNB-75 33.4 µM | MDA-N 31.3 µM | LOX IMVI 19.8 µM | OVCAR-5 38.6 µM | SK-OV-3 65.3 µM | K562 35.2 µM | U-251 28.8 µM | A498 22.5 µM | NCI-H226 34 µM | OVCAR-8 23.2 µM | SW-620 43 µM | T47D 19.5 µM | SR 31.8 µM | UACC-62 19.4 µM | CCRF-CEM 20.1 µM | SK-MEL-5 27.4 µM | HOP-92 16.6 µM

OCC(CCc1ccccc1I)C1=CCC2(CC1)OCCO2 (stereo not given)
inactive: COLO 205 20.1 µM | Malme-3M 17.8 µM | PC-3 22.4 µM | SNB-75 19.4 µM | MDA-N 18.2 µM | LOX IMVI 14.9 µM | OVCAR-5 15.7 µM | SK-OV-3 39 µM | K562 > 100 µM | U-251 19.7 µM | A498 24.1 µM | NCI-H226 28.4 µM | OVCAR-8 17 µM | SW-620 23.4 µM | T47D 17.7 µM | SR 45.6 µM | UACC-62 16.4 µM | CCRF-CEM 13.5 µM | SK-MEL-5 14.6 µM | HOP-92 12.4 µM
